# System: Lactobacillus paracasei
# Assay: Effect of Lysozyme on Lactobacillus in fermentation medium (liquefied corn mash), bacterial plating and counting
# Format: cell-based
# Conditions: 0-100-300-1000 mg/L Lysozyme in corn mash pH 5.05, 32° C., 0, 24 and 48 hours (FIG. 4)
# Method: Milled corn was liquefied in an aqueous slurry (pH 5.6) using 50 NU/g DS Bacterial Alpha-Amylase A by heating until a temperature of 85° C. (approx 20 minutes) was reached. Thereafter the slurry is cooked for another 60 minutes. A sample of the liquefied corn mash (CM) was pH-adjusted to 5.05 with H2SO4. After pH adjustment, the mash was split up into approximately 59 of CM and added to 36 15 mL plastic centrifuge tubes. Various amounts of L. paracasei were then added to give an initial cell count of about 1-3×10^6/mL. Different dosages (0-100-300-1000 mg/L) of Lysozyme (Sigma) were also added to each tube. The tubes were then thoroughly vortexed and placed in a rack in 32° C. water bath. Tubes were pulled after 0, 24, and 48 hours for bacterial plating and counting. No additional Lysozyme was added to any of the tubes after time zero.
substance,measurement,value
"Lysozyme: Lysozyme from hen egg white, cat # L-7651, purchased from Sigma",Antibacterial effect on Lactobacillus (growth inhibition),effective inhibiting growth of Lactobacillus paracasei
